The values that follow come from patent publication US20260242391A1 (priority 2023, published 2026).

Where only a bound is given, the exact number is not on record here.

One data set concerns HL-60. Briefly: HL-60 differentiation potency. Format: cell-based. As to conditions: Homo sapiens.
The nature of another data set: in vitro. Particulars: human.

Regarding `C[C@H]1[C@@H](OCc2ccc(C(=O)N[C@H](C(=O)O)C(C)(C)C)cc2)O[C@@H]2O[C@@]3(C)CC[C@H]4[C@H](C)CC[C@@H]1[C@@]24OO3` [Compound 281, (S)-3,3-dimethyl-2-(4-((((3R,5aS,6R,8aS, 9R,10S,12R, 12aR)-3,6,9-trimethyldeca-hydro-12H-3,12-epoxy[1,2]dioxepino[4,3-i]isochromen-10-yl)oxy)methyl)benzamido) butanoic acid], the half-maximal effective concentration (EC50) (commonly the concentration that produces a half-maximal response) with HL-60 worked out at 112 nM. Besides, in the data set “in vitro”, half-maximal inhibition (IC50) required 430 nM.
In turn, `CO[C@H](C)[C@H](NC(=O)c1ccc(O[C@H]2O[C@@H]3O[C@@]4(C)CC[C@H]5[C@H](C)CC[C@@H]([C@H]2C)[C@@]35OO4)cc1)C(=O)O` [Compound 248, O-methyl-N-(4-(((3R,5aS,6R,8aS, 9R,10S,12R, 12aR)-3,6,9-trimethyldeca-hydro-12H-3,12-epoxy[1,2]dioxepino[4,3-i]isochromen-10-yl)oxy)benzoyl)-L-threonine] showed an EC50 with HL-60 of 412 nM. Moreover, the concentration for half-maximal inhibition (IC50) (as a rule, the concentration that inhibits the measured activity by half) in the data set “in vitro” is above 20000 nM.
On the same counts, the results for `C[C@H]1[C@@H](OCc2ccc(C(=O)NC(C)(C)C(=O)O)cc2)O[C@@H]2O[C@@]3(C)CC[C@H]4[C@H](C)CC[C@@H]1[C@@]24OO3` [Compound 284, 2-methyl-2-(4-((((3R,5aS,6R,8aS, 9R,10S,12R, 12aR)-3,6,9-trimethyldeca-hydro-12H-3,12-epoxy[1,2]dioxepino[4,3-i]isochromen-10-yl)oxy)methyl)benzamido) propanoic acid] are 524 nM and above 20000 nM.
Regarding `C[C@H]1[C@@H](Oc2ccc(CC(=O)N[C@H]3CC[C@@H](C(=O)O)CC3)cc2)O[C@@H]2O[C@@]3(C)CC[C@H]4[C@H](C)CC[C@@H]1[C@@]24OO3` [Compound 308, (1R,4s)-4-(2-(4-(((3R,5aS,6R,8aS, 9R,10S,12R, 12aR)-3,6,9-trimethyldeca-hydro-12H-3,12-epoxy[1,2]dioxepino[4,3-i]isochromen-10-yl)oxy)phenyl)acetamido) cyclohexane-1-carboxylic acid], it took 12.1 nM to reach a half-maximal effect in the data set on HL-60 (EC50). Besides, the IC50 in the data set “in vitro” (HL-60 cells) was above 20000 nM.
Turning to `C[C@H]1[C@@H](OCc2ccc(N3C(=O)N(CC(=O)O)C(C)(C)C3=O)cc2)O[C@@H]2O[C@@]3(C)CC[C@H]4[C@H](C)CC[C@@H]1[C@@]24OO3` [Compound 296, 2-(5,5-dimethyl-2,4-dioxo-3-(4-((((3R,5aS,6R,8aS, 9R,10S,12R, 12aR)-3,6,9-trimethyldeca-hydro-12H-3,12-epoxy[1,2]dioxepino[4,3-i]isochromen-10-yl)oxy)methyl)phenyl)imidazolidin-1-yl)acetic acid], the EC50 with HL-60 stood at 2910 nM. In the data set “in vitro”, this compound returned an IC50 above 20000 nM.
`C[C@H]1[C@@H](Oc2ccc(CC(=O)NC34CCC(C(=O)O)(C3)C4)cc2)O[C@@H]2O[C@@]3(C)CC[C@H]4[C@H](C)CC[C@@H]1[C@@]24OO3` [Compound 300, 4-(2-(4-(((3R,5aS,6R,8aS, 9R,10S,12R, 12aR)-3,6,9-trimethyldeca-hydro-12H-3,12-epoxy[1,2]dioxepino[4,3-i]isochromen-10-yl)oxy)phenyl)acetamido) bicyclo[2.1.1] hexane-1-carboxylic acid] registered an EC50 in the data set on HL-60 of 17 nM. This compound also came in with an IC50 in “in vitro” of 19500 nM.
The compound `C[C@H]1[C@@H](O[C@H]2CC[C@@H](C(=O)N[C@H](C(=O)O)C3CCC3)CC2)O[C@@H]2O[C@@]3(C)CC[C@H]4[C@H](C)CC[C@@H]1[C@@]24OO3` [Compound 252, (S)-2-cyclobutyl-2-((1R,4R)-4-(((3R,5aS,6R,8aS, 9R,10S,12R, 12aR)-3,6,9-trimethyldeca-hydro-12H-3,12-epoxy[1,2]dioxepino[4,3-i]isochromen-10-yl)oxy)cyclohexane-1-carboxamido) acetic acid] yielded a 50% effective concentration (EC50) with HL-60 of 242 nM. The compound also yielded an IC50 in “in vitro” above 20000 nM.
In the case of `C[C@H]1[C@@H](OCC(=O)N[C@H](C(=O)O)C(C)(C)C)O[C@@H]2O[C@@]3(C)CC[C@H]4[C@H](C)CC[C@@H]1[C@@]24OO3` [Compound 188, (S)-3,3-dimethyl-2-(2-(((3R,5aS,6R, 8aS,9R,10S,12R, 12aR)-3,6,9-trimethyldeca-hydro-12H-3,12-epoxy[1,2]dioxepino[4,3-i]isochromen-10-yl)oxy)acetamido) butanoic acid], in the data set with HL-60, the EC50 is 5060 nM. In “in vitro”, this compound returned a 50% inhibitory concentration (IC50) above 20000 nM.
The like results for `C[C@H]1[C@@H](OCc2ccc(C(=O)N3C[C@@H](F)C[C@H]3C(=O)O)cc2)O[C@@H]2O[C@@]3(C)CC[C@H]4[C@H](C)CC[C@@H]1[C@@]24OO3` [Compound 276, (2S,4S)-4-fluoro-1-(4-((((3R,5aS,6R,8aS, 9R,10S,12R, 12aR)-3,6,9-trimethyldeca-hydro-12H-3,12-epoxy[1,2]dioxepino[4,3-i]isochromen-10-yl)oxy)methyl)benzoyl) pyrrolidine-2-carboxylic acid] were, in that order, above 20000 nM and above 20000 nM.
On the same counts, the results for `C[C@H]1[C@@H](OCc2ccc(C(=O)N[C@@H]3C[C@H](C(=O)O)C[C@H]3O)cc2)O[C@@H]2O[C@@]3(C)CC[C@H]4[C@H](C)CC[C@@H]1[C@@]24OO3` [Compound 288, (1S,3R,4R)-3-hydroxy-4-(4-((((3R,5aS,6R,8aS, 9R,10S,12R, 12aR)-3,6,9-trimethyldeca-hydro-12H-3,12-epoxy[1,2]dioxepino[4,3-i]isochromen-10-yl)oxy)methyl)benzamido) cyclopentane-1-carboxylic acid] are 5580 nM and above 20000 nM.
For the compound `C[C@H]1[C@@H](O[C@H]2C[C@@H](C(=O)N[C@H]3CC[C@@H](C(=O)O)C3)C2)O[C@@H]2O[C@@]3(C)CC[C@H]4[C@H](C)CC[C@@H]1[C@@]24OO3` [Compound 201, (1R,3S)-3-((1R,3R)-3-(((3R,5aS,6R,8aS, 9R,10S,12R, 12aR)-3,6,9-trimethyldeca-hydro-12H-3,12-epoxy[1,2]dioxepino[4,3-i]isochromen-10-yl)oxy)cyclo-butane-1-carboxamido) cyclopentane-1-carboxylic acid], a half-maximal effect with HL-60 (EC50) was put at 6730 nM. In the data set “in vitro” (HL-60 cells), this compound displayed an IC50 above 20000 nM.
In the case of `C[C@H]1[C@@H](Oc2ccc(OC3CCC(C(=O)O)C3)cc2)O[C@@H]2O[C@@]3(C)CC[C@H]4[C@H](C)CC[C@@H]1[C@@]24OO3` (stereo partly drawn) [Compound 227, 3-(4-(((3R,5aS,6R,8aS, 9R,10S,12R, 12aR)-3,6,9-trimethyldeca-hydro-12H-3,12-epoxy[1,2]dioxepino[4,3-i]isochromen-10-yl)oxy)phenoxy) cyclopentane-1-carboxylic acid], in the data set on HL-60, the concentration giving a half-maximal response (EC50) worked out at 32.9 nM. In the data set “in vitro”, the half-inhibitory concentration (IC50) is 700 nM.
Compound `C[C@H]1[C@@H](Oc2ccc(OCC(=O)O)cc2Cl)O[C@@H]2O[C@@]3(C)CC[C@H]4[C@H](C)CC[C@@H]1[C@@]24OO3` [Compound 218, 2-(3-chloro-4-(((3R,5aS,6R,8aS, 9R,10S,12R, 12aR)-3,6,9-trimethyldeca-hydro-12H-3,12-epoxy[1,2]dioxepino[4,3-i]isochromen-10-yl)oxy)phenoxy) acetic acid] displayed an EC50 with HL-60 of 101 nM. In addition, the half-inhibitory concentration (IC50) in “in vitro” was 690 nM.
`C[C@H]1[C@@H](O[C@H]2CC[C@@H](C(=O)N[C@@H](CC(F)(F)F)C(=O)O)CC2)O[C@@H]2O[C@@]3(C)CC[C@H]4[C@H](C)CC[C@@H]1[C@@]24OO3` [Compound 237, (S)-4,4,4-trifluoro-2-((1R,4R)-4-(((3R,5aS,6R,8aS, 9R,10S,12R, 12aR)-3,6,9-trimethyldeca-hydro-12H-3,12-epoxy[1,2]dioxepino[4,3-i]isochromen-10-yl)oxy)cyclo-hexane-1-carboxamido) butanoic acid] returned an EC50 in the data set on HL-60 of 7260 nM. Besides, the IC50 in the data set “in vitro” (HL-60 cells) is above 20000 nM.
